Data as given in patent US5219867A, “Platelet aggregation inhibitory agents” (priority 1992, dated 1993).
Entries after “also recorded” stand apart in the source; their conditions may differ. Where a name gives a salt, the structure may show the parent alone. Read-outs that look alike come from different tables or passages of the source.

Key:
human platelets = assay: Inhibition of collagen-induced aggregation, washed aequorin-loaded platelet suspension; assay type: cell-based; settings: for IC50: Homo sapiens, Platelet, collagen-induced aggregation (n = 4), HEPES-buffered saline, 1.0 mM CaCl2, read-out: Ia50 ± S.E. Collagen-induced
Method: Procedure for Cytosolic Ionized Calcium Determination. The basic procedure of Yamaguchi, et al. (Thromb. Res., Vol. 44, Pages 165-174, 1986) was followed. Blood was collected from six blood donors, aged 24-38 years, who had fasted overnight and affirmed abstinence from alcohol, caffeine and medications of any kind for a period of at least one week prior to donation. […] Platelets were collected (800 g, 15 min), resuspended in and washed (800 g, 15 min) with HEPES-buffered saline (140 mM NaCl, 2.7 mM KCl, 0.1% bovine albumin, 0.5% glucose, 3.8 mM HEPES, pH 7.6) with EGTA (5 mM) and PGE1 (1 μM). The platelet pellet was resuspended in 90 μl of the same buffer and added to 20μl of 3 mg/ml aequorin solution in a 1.5 ml Eppendorf centrifuge tube. Six 1 μl aliquots of DMSO were added at 90 second intervals with brief, gentle mixing on a Vortex mixer and the platelet suspension was incubated 2 minutes after the last addition. One ml of HEPES-buffered saline was added, gently mixed, and again incubated for 2 minutes. The platelets were pelleted (1000 g, 30 sec), resuspended in HEPES-buffered saline to which was added either 1 mM Mg Cl2, (calcium-free buffer) or 1 mM Mg Cl2 and 1 mM Ca Cl2 (calcium buffer), depending on the experiment. The platelet count was adjusted to 3-4×10^5 platelets/μl.
The Platelet Ionized Calcium Aggregometer (Chrono-Log Corp., Ltd., Havertown, Pa.) was used to obtain simultaneous aggregation and luminescence data under the following experimental conditions: (1) platelet suspension, 1 ml, was equilibrated at 37° C. with stirring at 1100 rpm; (2) 100 μl (1.2 μg) of fibrinogen was added; (3) the vehicle (95% ethanol) or the test compound in vehicle was added; (4) when needed, 10 μl of the desired concentration of EGTA was added 30 seconds prior to addition of the agonist; then (5) the agonist (Collagen, 5 μg or 20 μg) was added and the time noted. At one minute after addition of the agonist in Channel 1, a platelet sample containing fibrinogen in Channel 2 was lysed with 10 μl of a 1:1 solution of Triton X-100 (final concentration 0.005%) 10 mM CaCl2 (final concentration 0.5 mM). Treated and control […] data were corrected for time dependent decay of fluorescence using data from the untreated lysed controls.
Normally 4 compound-treated samples (at 4 different concentrations) interspersed with 3 control samples were evaluated at 4.5 minute intervals starting 18-23 minutes after the DMSO treatment. The Ia50 values were calculated as described earlier. The compound concentrations effecting 50% inhibition (Ica50) of collagen-induced cytosolic ionized calcium values was determined by linear regression analysis.
Compounds I-rac, (+)-I,(IC) and (-)-I(IA) were evaluated. The Ia50 (collagen-induced aggregation) and Ica50 (compound concentration required to inhibit by 50% the collagen-induced rise in cytosolic ionized calcium)values determined with platelet suspensions in HEPES-buffered saline containing 1.0 mM CaCl2 were as follows: […]

human blood platelets = assay: In vitro inhibition of ADP-induced human platelet aggregation (platelet-rich plasma, aggregometer); assay type: cell-based; settings: for IC50: Homo sapiens, Platelet; for Potency in inhibiting aggregation relative to rac-I: in vitro platelet aggregation
Method: Procedure for Determining In Vitro Platelet Aggregation-Inhibitory Activity. Adenosine diphosphate (ADP) was used to induce platelet aggregation and was utilized as the sodium salt. A 10 mM stock solution was prepared fresh before each use in modified Tyrode's buffer and working dilutions were prepared with modified Tyrode's buffer immediately prior to use. The buffer contained NaCl (137.00 mM), KCl (2.70 mM), NaHCO3 (11.90 mM), NaH2 PO4 H2 O (0.36 mM) and glucose (5.60 mM) in redistilled water. Adjustment to pH 7.4 was effected by addition of 1N HCl.
The blood was transferred into plastic centrifuge tubes containing 3.2% sodium citrate (blood/citrate ratio 8:1) and centrifuged at 120Xg for 15 minutes at 23° C., yielding platelet-rich plasma (PRP); platelet-poor-plasma (PPP) was obtained by centrifugation of citrated whole blood at 1,100Xg for 15 min at 23° C. The platelet count of PRP was determined and adjusted to a final count of 300,000 platelet per mm^3 by dilution with autologous PPP. […] The plasma so obtained was transferred using a 1.0 ml Centaur pipette into a 50 ml polyethylene centrifuge tube. In order to maintain plasma pH in the appropriate range, the air in the tubes are displaced gently (2 minutes) with a 5% (CO2 -95% air (v/v) mixture and the tube capped. The plasma was maintained at 37° C. in a water bath until used in the aggregation experiments.
Assays of platelet aggregation were performed at least in duplicate, using plasma acquired from different donors, employing a method developed by Quintana, et al. (Quintana, et al., Relationships Between the Chemical Constitution of Carbamoylpiperidines and Related Compounds, and Their Inhibition of ADP-Induced Human Blood Platelet Aggregation, Thromb. Res. Vol. 22, Pages 665-680, 1981); Quintana, et al., Effects of Ethanol and of Other Factors on ADP-Induced Aggregation of Human Blood Platelets in Vitro, Thromb. Res., Vol. 20, Pages 405-415, 1980) (cf. Born, Nature, Vol. 194, Pages 927-929, 1962) and Mustard, et al., J. Lab. Clin. Med., Vol. 64, Pages 548-559, 1964).
Initially, in each experiment, 0.45-ml aliquots of PRP were placed in siliconized cuvettes and stirred (1,100 rpm) in the aggregometer at 37° C. to ascertain the absence of spontaneous aggregation. Appropriate ADP solutions (50 μl) were subsequently injected using a Hamilton microliter syringe to determine the minimal concentration eliciting maximal biphasic aggregation. […] In each case, the concentration of ADP so determined was used in eliciting aggregation throughout each specific set of aggregometric evaluations.
0.5 μl of a solution of the evaluant compound in redistilled 95% ethanol was injected into a stirred ([…]) 0.4-ml aliquot of plasma in a siliconized cuvette in the aggregometer-well (37° C). After 15 seconds, the cuvette was transferred to an incubator (also at 37° C.) and the contents held at this temperature, without stirring, until 2 minutes postinjection. The cuvette was then returned to the aggregometer-well, a base-line being recorded for 2 minutes to detect any spontaneous aggregation. At exactly 4 minutes after injection of the evaluant solution, 50 μl of the appropriate ADP solution was injected and aggregation recorded for 5.5 minutes. Evaluants were studied at least 4 different concentrations. Control experiments (ethanol in a final concentration of 0.095% v/v) were performed in conditions parallel with those involving the respective evaluants, and were initiated either 1 minute prior to or 1 minute after the start of experiments employing the test compounds. This permitted injections to be made precisely at the specified times.

SMILES | IC50 (human platelets) | IC50 (human blood platelets; read-out: IC50 (compound concentration which inhibits ADP-induced platelet aggregation by 50%) ± S.E., racemic compounds, ADP-induced) | IC50 (human blood platelets; read-out: Ia50 (compound concentrations affecting 50% inhibition of aggregation) ± S.E., Table II, ADP-induced, n = 5 for (0)I and 6 for all others) | IC50 (human blood platelets; read-out: Ia50 ± S.E. ADP-Induced, table 3, ADP-induced (n = 5-6)) | Potency in inhibiting aggregation relative to (-)-I (human platelets; collagen as agonist, in vitro) | Potency in inhibiting aggregation relative to (-)-I (antipode) (human blood platelets; ADP as agonist, in vitro) | IC50 (human blood platelets; Table II, ADP-induced, n = 5 for (0)I and 6 for all others, read-out: Ia50 (compound concentrations affecting 50% inhibition of aggregation) ± S.E.) | IC50 (human blood platelets; table 3, ADP-induced (n = 5-6), read-out: Ia50 ± S.E. ADP-Induced) | Activity as a platelet aggregation inhibitor, in words (human blood platelets; as compared to racemic (I) / other stereoisomers, listed as (+) enantiomer, dihydrobromide) | Potency in inhibiting aggregation relative to rac-I (human blood platelets; dihydrobromide) | Potency in inhibiting aggregation relative to rac-I (human blood platelets; listed as (+) enantiomer of Compound I, dihydrobromide)
CCN(CC)C(=O)C1CCCN(Cc2ccc(CN3CCCC(C(=O)N(CC)CC)C3)cc2)C1 (racemic) [Compound I, α-α'-Bis[3-(N,N-diethyl-carbamoyl)piperidino]-p-xylene dihydrobromide] | 20.2 µM | 44.5 ± 12.7 µM | 44.5 ± 127 µM | 44.5 µM | – | – | – | – | – | – | –
CCN(CC)C(=O)C1CCCN(Cc2ccc(CN3CCCC(C(=O)N(CC)CC)C3)cc2)C1 (single isomer, unassigned) [IC, α-α'-Bis(3-N,N-diethylcarbamoyl)piperidino]-p-xylene dihydrobromide] | 10.7 ± 2.7 µM | – | – | – | 18 times | 15 times | 15.3 ± 3.9 µM | 15.3 ± 3.9 µM | unexepectedly superior activity; also recorded: possesses most of the therapeutic activity | three times more potent | two to three times more potent
